{
  "source": "ChEMBL document CHEMBL4330132",
  "about": "“5-Keto-3-cyano-2,4-diaminothiophenes as selective maternal embryonic leucine zipper kinase inhibitors” (Bioorg Med Chem Lett, 2019)",
  "key": {"[1]": {"biological_target": "Maternal embryonic leucine zipper kinase (Homo sapiens, UniProt Q14680)", "assay": "Inhibition of recombinant human MELK expressed in Escherichia coli using ZIPtide as substrate measured after 0.5 hrs by ADP-Glo assay"}, "[2]": {"biological_target": "Mitogen-activated protein kinase 13 (Homo sapiens) (UniProt O15264)", "assay": "Binding affinity to wild-type human full length p38-delta (M1 to L365 residues) expressed in bacterial expression system assessed as residual binding level at 1 uM by Kinomescan method relative to control"}, "[3]": {"biological_target": "Protein kinase C eta type (Homo sapiens) (UniProt P24723)", "assay": "Binding affinity to wild-type human partial length PRKCH (S324 to P683 residues) expressed in bacterial expression system assessed as residual binding level at 1 uM by Kinomescan method relative to control"}, "[4]": {"biological_target": "Serine/threonine-protein kinase Nek6 (Homo sapiens) (UniProt Q9HC98)", "assay": "Binding affinity to wild-type human full length NEK6 (M8 to T313 residues) expressed in bacterial expression system assessed as residual binding level at 1 uM by Kinomescan method relative to control"}, "[5]": {"biological_target": "Dual specificity protein kinase CLK1 (Homo sapiens) (UniProt P49759)", "sequence (P49759 whole entry, looked up, the tested form may be a part)": "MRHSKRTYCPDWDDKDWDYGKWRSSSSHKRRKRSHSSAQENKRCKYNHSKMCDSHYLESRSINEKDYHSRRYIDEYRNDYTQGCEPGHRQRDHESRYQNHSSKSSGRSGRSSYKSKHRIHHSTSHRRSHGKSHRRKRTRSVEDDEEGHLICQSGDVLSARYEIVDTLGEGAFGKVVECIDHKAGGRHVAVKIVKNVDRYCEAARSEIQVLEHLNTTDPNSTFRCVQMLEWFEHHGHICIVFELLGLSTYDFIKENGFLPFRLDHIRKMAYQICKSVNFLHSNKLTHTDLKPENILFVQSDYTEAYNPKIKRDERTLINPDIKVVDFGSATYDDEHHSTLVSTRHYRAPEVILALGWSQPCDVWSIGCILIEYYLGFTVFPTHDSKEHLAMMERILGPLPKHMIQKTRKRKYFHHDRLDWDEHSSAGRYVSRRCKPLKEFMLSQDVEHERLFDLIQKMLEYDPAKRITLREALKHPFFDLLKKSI", "assay": "Binding affinity to wild-type human full length CLK1 (M1 to I484 residues) expressed in bacterial expression system assessed as residual binding level at 1 uM by Kinomescan method relative to control"}, "[6]": {"biological_target": "ALK tyrosine kinase receptor (Homo sapiens) (UniProt Q9UM73)", "assay": "Binding affinity to wild-type human partial length ALK (I1088 to E1409 residues) expressed in mammalian expression system assessed as residual binding level at 1 uM by Kinomescan method relative to control"}, "[7]": {"biological_target": "Receptor-interacting serine/threonine-protein kinase 4 (Homo sapiens) (UniProt P57078)", "assay": "Binding affinity to wild-type human partial length RIPK4 (M1 to V303 residues) expressed in mammalian expression system assessed as residual binding level at 1 uM by Kinomescan method relative to control"}, "[8]": {"biological_target": "Serine/threonine-protein kinase PAK 6 (Homo sapiens) (UniProt Q9NQU5)", "assay": "Binding affinity to wild-type human partial length PAK6 (N298 to C681 residues) expressed in bacterial expression system assessed as residual binding level at 1 uM by Kinomescan method relative to control"}, "[9]": {"biological_target": "Dual specificity mitogen-activated protein kinase kinase 6 (Homo sapiens) (UniProt P52564)", "assay": "Binding affinity to wild-type human partial length MEK6 (K36 to D334 residues) expressed in bacterial expression system assessed as residual binding level at 1 uM by Kinomescan method relative to control"}, "[10]": {"biological_target": "Ephrin type-A receptor 5 (Homo sapiens) (UniProt P54756)", "assay": "Binding affinity to wild-type human partial length EPHA5 (T627 to V930 residues) expressed in bacterial expression system assessed as residual binding level at 1 uM by Kinomescan method relative to control"}, "[11]": {"biological_target": "Serine/threonine-protein kinase MRCK gamma (Homo sapiens) (UniProt Q6DT37)", "assay": "Binding affinity to wild-type human partial length DMPK2 (S46 to S408 residues) expressed in bacterial expression system assessed as residual binding level at 1 uM by Kinomescan method relative to control"}, "[12]": {"biological_target": "Tyrosine-protein kinase Fer (Homo sapiens) (UniProt P16591)", "assay": "Binding affinity to wild-type human partial length FER (S542 to T822 residues) expressed in bacterial expression system assessed as residual binding level at 1 uM by Kinomescan method relative to control"}, "[13]": {"biological_target": "Serine/threonine-protein kinase PAK 2 (Homo sapiens) (UniProt Q13177)", "sequence (Q13177 whole entry, the tested form may be a part)": "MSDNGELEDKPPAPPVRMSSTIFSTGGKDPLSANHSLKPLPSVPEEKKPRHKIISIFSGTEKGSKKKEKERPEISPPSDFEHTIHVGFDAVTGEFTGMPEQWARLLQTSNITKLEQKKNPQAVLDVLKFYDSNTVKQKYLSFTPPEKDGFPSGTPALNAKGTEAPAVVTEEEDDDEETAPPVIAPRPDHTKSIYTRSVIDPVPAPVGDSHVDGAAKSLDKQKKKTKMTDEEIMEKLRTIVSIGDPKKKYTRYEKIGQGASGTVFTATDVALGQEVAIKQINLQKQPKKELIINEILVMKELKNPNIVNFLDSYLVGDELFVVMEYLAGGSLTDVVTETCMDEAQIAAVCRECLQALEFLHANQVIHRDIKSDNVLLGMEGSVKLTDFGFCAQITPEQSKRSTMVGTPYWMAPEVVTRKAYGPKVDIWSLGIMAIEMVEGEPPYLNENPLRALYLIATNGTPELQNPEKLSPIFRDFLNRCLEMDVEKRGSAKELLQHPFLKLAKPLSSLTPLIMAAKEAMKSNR", "assay": "Binding affinity to wild-type human partial length PAK2 (P151 to R525 residues) expressed in bacterial expression system assessed as residual binding level at 1 uM by Kinomescan method relative to control"}, "[14]": {"biological_target": "Dual specificity tyrosine-phosphorylation-regulated kinase 1B (Homo sapiens) (UniProt Q9Y463)", "sequence (Q9Y463 whole entry, looked up, the tested form may be a part)": "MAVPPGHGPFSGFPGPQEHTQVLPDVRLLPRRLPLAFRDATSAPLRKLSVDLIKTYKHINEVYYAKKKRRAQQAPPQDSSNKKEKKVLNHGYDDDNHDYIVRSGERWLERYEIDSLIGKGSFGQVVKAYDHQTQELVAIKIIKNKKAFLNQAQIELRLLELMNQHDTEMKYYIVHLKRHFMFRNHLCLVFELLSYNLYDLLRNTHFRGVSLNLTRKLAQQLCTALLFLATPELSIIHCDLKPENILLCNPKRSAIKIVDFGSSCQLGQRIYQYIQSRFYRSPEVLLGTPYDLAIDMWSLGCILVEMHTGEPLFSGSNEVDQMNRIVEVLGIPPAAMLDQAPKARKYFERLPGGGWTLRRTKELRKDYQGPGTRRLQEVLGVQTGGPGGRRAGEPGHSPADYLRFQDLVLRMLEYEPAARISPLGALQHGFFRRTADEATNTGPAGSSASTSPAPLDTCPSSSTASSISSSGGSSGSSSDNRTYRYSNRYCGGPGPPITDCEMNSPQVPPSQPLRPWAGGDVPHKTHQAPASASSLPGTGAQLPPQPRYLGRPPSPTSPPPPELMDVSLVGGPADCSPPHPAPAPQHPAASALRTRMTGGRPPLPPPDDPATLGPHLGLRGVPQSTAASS", "assay": "Binding affinity to wild-type human full length DYRK1B (M1 to S629 residues) expressed in bacterial expression system assessed as residual binding level at 1 uM by Kinomescan method relative to control"}, "[15]": {"biological_target": "Casein kinase I isoform gamma-3 (Homo sapiens) (UniProt Q9Y6M4)", "sequence (Q9Y6M4 whole entry, looked up, the tested form may be a part, canonical isoform)": "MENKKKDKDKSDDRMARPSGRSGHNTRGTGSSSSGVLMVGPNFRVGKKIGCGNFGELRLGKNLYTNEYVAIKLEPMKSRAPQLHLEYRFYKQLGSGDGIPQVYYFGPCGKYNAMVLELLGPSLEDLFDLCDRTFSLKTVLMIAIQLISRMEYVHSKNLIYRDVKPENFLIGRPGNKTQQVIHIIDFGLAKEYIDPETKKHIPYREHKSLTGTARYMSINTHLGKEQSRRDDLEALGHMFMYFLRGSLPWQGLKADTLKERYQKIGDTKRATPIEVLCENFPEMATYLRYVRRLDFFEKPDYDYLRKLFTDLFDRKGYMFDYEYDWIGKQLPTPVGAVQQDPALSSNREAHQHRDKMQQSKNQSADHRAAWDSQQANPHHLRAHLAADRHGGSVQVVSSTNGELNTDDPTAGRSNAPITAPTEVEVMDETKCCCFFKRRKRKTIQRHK", "assay": "Binding affinity to wild-type human full length CSNK1G3 (M1 to K447 residues) expressed in bacterial expression system assessed as residual binding level at 1 uM by Kinomescan method relative to control"}, "[16]": {"biological_target": "Serine/threonine-protein kinase MARK2 (Homo sapiens) (UniProt Q7KZI7)", "assay": "Binding affinity to wild-type human partial length MARK2 (M1 to R450 residues) expressed in bacterial expression system assessed as residual binding level at 1 uM by Kinomescan method relative to control"}, "[17]": {"biological_target": "Serine/threonine-protein kinase LATS2 (Homo sapiens) (UniProt Q9NRM7)", "assay": "Binding affinity to wild-type human partial length LATS2 (Q641 to V1088 residues) expressed in mammalian expression system assessed as residual binding level at 1 uM by Kinomescan method relative to control"}, "[18]": {"biological_target": "Mitogen-activated protein kinase kinase kinase 7 (Homo sapiens) (UniProt O43318)", "assay": "Binding affinity to wild-type human partial length TAK1 (M1 to Q303 residues) expressed in mammalian expression system assessed as residual binding level at 1 uM by Kinomescan method relative to control"}, "[19]": {"system": "Receptor-type tyrosine-protein kinase FLT3 (Homo sapiens), P36888 [K663Q]", "assay": "Binding affinity to human partial length FLT3 K663Q mutant (V592 to Y969 residues) expressed in bacterial expression system assessed as residual binding level at 1 uM by Kinomescan method relative to control"}, "[20]": {"biological_target": "BMP-2-inducible protein kinase (Homo sapiens) (UniProt Q9NSY1)", "sequence (Q9NSY1 whole entry, looked up, the tested form may be a part)": "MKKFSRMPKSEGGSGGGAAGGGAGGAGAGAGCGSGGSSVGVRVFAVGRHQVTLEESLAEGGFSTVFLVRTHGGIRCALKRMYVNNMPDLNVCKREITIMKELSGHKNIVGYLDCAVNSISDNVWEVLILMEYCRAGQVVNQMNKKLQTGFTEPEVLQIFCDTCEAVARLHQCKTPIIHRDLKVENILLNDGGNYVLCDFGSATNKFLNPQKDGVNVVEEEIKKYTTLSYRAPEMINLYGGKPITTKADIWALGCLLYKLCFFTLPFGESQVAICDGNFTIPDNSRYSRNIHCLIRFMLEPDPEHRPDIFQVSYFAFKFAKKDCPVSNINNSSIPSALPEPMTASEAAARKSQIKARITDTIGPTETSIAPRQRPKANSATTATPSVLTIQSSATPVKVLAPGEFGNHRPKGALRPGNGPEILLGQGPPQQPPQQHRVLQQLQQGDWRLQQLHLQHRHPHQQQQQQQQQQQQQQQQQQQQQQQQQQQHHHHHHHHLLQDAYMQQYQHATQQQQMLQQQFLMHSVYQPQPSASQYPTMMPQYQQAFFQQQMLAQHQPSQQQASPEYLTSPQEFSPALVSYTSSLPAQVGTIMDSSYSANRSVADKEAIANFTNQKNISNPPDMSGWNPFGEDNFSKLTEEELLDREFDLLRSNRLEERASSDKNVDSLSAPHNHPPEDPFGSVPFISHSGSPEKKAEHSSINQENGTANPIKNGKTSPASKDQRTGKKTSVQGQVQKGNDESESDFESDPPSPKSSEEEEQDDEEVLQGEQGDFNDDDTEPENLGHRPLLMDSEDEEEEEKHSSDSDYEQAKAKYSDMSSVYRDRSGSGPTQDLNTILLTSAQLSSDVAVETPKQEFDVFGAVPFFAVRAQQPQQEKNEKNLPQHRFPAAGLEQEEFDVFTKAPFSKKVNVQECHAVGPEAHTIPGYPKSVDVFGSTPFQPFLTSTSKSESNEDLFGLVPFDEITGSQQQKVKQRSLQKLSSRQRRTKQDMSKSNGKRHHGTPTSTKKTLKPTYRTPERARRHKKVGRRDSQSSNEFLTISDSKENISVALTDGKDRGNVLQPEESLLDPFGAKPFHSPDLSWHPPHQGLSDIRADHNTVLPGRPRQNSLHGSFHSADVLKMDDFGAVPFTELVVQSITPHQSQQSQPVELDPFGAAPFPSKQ", "assay": "Binding affinity to wild-type human partial length BIKE (S34 to N329 residues) expressed in bacterial expression system assessed as residual binding level at 1 uM by Kinomescan method relative to control"}, "[21]": {"system": "Phosphatidylinositol 4,5-bisphosphate 3-kinase catalytic subunit alpha isoform (Homo sapiens), P42336 [E545K]", "sequence (P42336 whole entry E545K, the tested form may be a part, canonical isoform)": "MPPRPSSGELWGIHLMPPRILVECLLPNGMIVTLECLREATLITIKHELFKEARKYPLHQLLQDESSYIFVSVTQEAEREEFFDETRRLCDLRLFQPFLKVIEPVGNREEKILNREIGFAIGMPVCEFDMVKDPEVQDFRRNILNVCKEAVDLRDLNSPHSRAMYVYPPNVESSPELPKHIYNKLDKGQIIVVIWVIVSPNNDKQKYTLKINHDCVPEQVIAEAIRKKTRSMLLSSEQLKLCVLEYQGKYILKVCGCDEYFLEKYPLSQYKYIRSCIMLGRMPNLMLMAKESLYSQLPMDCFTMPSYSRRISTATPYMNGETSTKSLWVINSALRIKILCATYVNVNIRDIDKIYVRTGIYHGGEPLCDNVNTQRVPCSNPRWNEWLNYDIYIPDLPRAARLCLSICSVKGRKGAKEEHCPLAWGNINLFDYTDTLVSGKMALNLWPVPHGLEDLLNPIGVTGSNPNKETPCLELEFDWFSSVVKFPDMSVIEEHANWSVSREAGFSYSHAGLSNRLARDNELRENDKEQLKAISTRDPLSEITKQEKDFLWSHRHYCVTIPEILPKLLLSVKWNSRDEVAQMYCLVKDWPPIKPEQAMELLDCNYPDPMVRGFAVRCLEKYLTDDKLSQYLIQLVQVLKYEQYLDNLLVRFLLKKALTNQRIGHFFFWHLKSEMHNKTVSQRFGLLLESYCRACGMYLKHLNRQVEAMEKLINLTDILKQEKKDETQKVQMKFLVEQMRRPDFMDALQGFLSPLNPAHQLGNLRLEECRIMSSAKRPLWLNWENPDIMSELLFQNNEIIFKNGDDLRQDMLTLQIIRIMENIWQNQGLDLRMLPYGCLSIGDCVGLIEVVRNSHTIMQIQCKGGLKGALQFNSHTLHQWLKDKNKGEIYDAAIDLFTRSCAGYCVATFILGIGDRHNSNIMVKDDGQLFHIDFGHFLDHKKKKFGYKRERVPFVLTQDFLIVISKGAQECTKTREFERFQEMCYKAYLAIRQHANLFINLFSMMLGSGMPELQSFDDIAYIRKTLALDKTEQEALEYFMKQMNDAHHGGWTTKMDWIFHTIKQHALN", "assay": "Binding affinity to human partial length PIK3CA E545K mutant (R108 to N1068 residues) expressed in mammalian expression system assessed as residual binding level at 1 uM by Kinomescan method relative to control"}, "[22]": {"biological_target": "Interleukin-1 receptor-associated kinase 3 (Homo sapiens) (UniProt Q9Y616)", "sequence (Q9Y616 whole entry, the tested form may be a part)": "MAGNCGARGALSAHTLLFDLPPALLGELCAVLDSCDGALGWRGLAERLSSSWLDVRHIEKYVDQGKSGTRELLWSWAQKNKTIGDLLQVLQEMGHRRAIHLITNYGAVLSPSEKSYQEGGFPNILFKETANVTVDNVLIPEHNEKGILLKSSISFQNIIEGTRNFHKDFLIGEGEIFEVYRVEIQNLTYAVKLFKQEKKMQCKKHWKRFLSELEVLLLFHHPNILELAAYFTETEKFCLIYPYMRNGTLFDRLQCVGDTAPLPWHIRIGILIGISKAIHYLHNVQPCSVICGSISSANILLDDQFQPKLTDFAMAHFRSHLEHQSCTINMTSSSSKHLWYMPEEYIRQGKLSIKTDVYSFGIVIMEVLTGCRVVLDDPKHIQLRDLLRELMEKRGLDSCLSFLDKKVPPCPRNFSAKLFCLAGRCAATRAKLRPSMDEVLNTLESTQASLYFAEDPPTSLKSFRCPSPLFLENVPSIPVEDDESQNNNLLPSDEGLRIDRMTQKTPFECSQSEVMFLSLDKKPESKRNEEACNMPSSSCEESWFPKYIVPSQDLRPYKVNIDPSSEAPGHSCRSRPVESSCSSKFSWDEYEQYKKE", "assay": "Binding affinity to wild-type human partial length IRAK3 (V147 to E596 residues) expressed in bacterial expression system assessed as residual binding level at 1 uM by Kinomescan method relative to control"}, "[23]": {"system": "Phosphatidylinositol 4,5-bisphosphate 3-kinase catalytic subunit alpha isoform (Homo sapiens), P42336 [M1043I]", "sequence (P42336 whole entry M1043I, the tested form may be a part, canonical isoform)": "as the sequence (P42336 whole entry E545K, the tested form may be a part, canonical isoform) above, with K545E, M1043I counted along it", "assay": "Binding affinity to human partial length PIK3CA M1043I mutant (R108 to N1068 residues) expressed in mammalian expression system assessed as residual binding level at 1 uM by Kinomescan method relative to control"}, "[24]": {"biological_target": "Mitogen-activated protein kinase 8 (Homo sapiens) (UniProt P45983)", "assay": "Binding affinity to wild-type human full length JNK1 (M1 to Q384 residues) expressed in mammalian expression system assessed as residual binding level at 1 uM by Kinomescan method relative to control"}},
  "data": [
    {"smiles": "CC(C)Nc1sc(C(=O)c2ccc(Cl)s2)c(N)c1C#N", "values": [
      {"measurement": "IC50", "setting": "[1]", "result": 192, "unit": "nM"},
      {"measurement": "Activity", "setting": "[2]", "result": 100, "unit": "%"},
      {"measurement": "Activity", "setting": "[3]", "result": 84, "unit": "%"},
      {"measurement": "Activity", "setting": "[4]", "result": 100, "unit": "%"},
      {"measurement": "Activity", "setting": "[5]", "result": 70, "unit": "%"},
      {"measurement": "Activity", "setting": "[6]", "result": 100, "unit": "%"},
      {"measurement": "Activity", "setting": "[7]", "result": 100, "unit": "%"},
      {"measurement": "Activity", "setting": "[8]", "result": 79, "unit": "%"},
      {"measurement": "Activity", "setting": "[9]", "result": 100, "unit": "%"},
      {"measurement": "Activity", "setting": "[10]", "result": 100, "unit": "%"},
      {"measurement": "Activity", "setting": "[11]", "result": 100, "unit": "%"},
      {"measurement": "Activity", "setting": "[12]", "result": 81, "unit": "%"},
      {"measurement": "Activity", "setting": "[13]", "result": 75, "unit": "%"},
      {"measurement": "Activity", "setting": "[14]", "result": 64, "unit": "%"},
      {"measurement": "Activity", "setting": "[15]", "result": 77, "unit": "%"},
      {"measurement": "Activity", "setting": "[16]", "result": 91, "unit": "%"},
      {"measurement": "Activity", "setting": "[17]", "result": 100, "unit": "%"},
      {"measurement": "Activity", "setting": "[18]", "result": 100, "unit": "%"},
      {"measurement": "Activity", "setting": "[19]", "result": 96, "unit": "%"},
      {"measurement": "Activity", "setting": "[20]", "result": 56, "unit": "%"},
      {"measurement": "Activity", "setting": "[21]", "result": 80, "unit": "%"},
      {"measurement": "Activity", "setting": "[22]", "result": 86, "unit": "%"},
      {"measurement": "Activity", "setting": "[23]", "result": 97, "unit": "%"},
      {"measurement": "Activity", "setting": "[24]", "result": 100, "unit": "%"}
    ]}
  ]
}
